Measured values as given in PMC11625327, “Molecular determinants of neuropeptide-mediated activation mechanisms in tachykinin NK1 and NK2 receptors” (The Journal of Biological Chemistry, 2024).

Tests used:
Assay type in all cases: cell-based
[1] = target: T1, NK1R F264Y M291F (Homo sapiens, UniProt P25103, F264Y/M291F); test: BRET-based cAMP assay (Gs); conditions: COS-7, COS7 cells, CAMYEL BRET sensor, four-parameter fit, mean ± SEM of three independent experiments
T1 construct: host or cells: COS7
T1 sequence (P25103 whole entry F264Y/M291F): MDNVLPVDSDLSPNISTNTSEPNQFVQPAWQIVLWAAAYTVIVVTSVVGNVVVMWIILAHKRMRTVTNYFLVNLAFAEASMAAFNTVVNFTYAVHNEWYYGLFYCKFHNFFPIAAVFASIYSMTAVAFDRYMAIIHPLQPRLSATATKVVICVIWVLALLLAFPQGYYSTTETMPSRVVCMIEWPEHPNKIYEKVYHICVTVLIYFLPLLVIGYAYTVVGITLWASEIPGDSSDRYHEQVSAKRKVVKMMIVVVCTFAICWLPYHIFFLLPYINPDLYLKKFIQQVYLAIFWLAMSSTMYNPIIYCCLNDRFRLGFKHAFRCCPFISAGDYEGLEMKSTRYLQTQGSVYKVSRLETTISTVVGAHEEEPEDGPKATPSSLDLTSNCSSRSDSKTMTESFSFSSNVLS
Procedure: (§1) COS7 cells were tested monthly for mycoplasma and kept negative. COS7 cells were plated in either clear, white, or white with clear bottom 96-well plates that were coated with poly-D-lysine (Sigma-Aldrich) 30 min prior to cell seeding (20,000 cells/well). The following day plates were transiently transfected using calcium precipitation with 200 ng/well DNA in a culture medium with the addition of 100μM (final concentration) chloroquine. Transfection was stopped 5 h later with the addition of a fresh maintenance medium. Fig. […] The intracellular level of cAMP was monitored in real-time using BRET. This was achieved by implementing a construct consisting of a cAMP binding protein (exchange protein activated by cAMP [EPAC]) which has been flanked by a BRET pair consisting of Rluc and yellow fluorescent protein. This construct is called CAMYEL (cAMP sensor using yellow fluorescent protein-EPAC-Rluc) and enables cAMP production to be sensed as EPAC changes conformation in response to increasing levels of cAMP, ultimately resulting in a loss of BRET signal. […] The BRET signal was calculated as the ratio of emission intensity at 535 nm (citrine) to the emission intensity at 475 nm (luciferase). […] All dose-response curves have been calculated using Prism 10 software (GraphPad Software, www.graphpad.com) nonlinear regression with four parameters. […]

[2] = target: T2, NK1R M291F (Homo sapiens, UniProt P25103, M291F); test: BRET-based cAMP assay (Gs); conditions: COS-7, COS7 cells, CAMYEL BRET sensor, four-parameter fit, mean ± SEM of three independent experiments
T2 construct: host or cells: COS7
T2 sequence (P25103 whole entry M291F): as the sequence (P25103 whole entry F264Y/M291F) above, with Y264F counted along it
Procedure: as §1

[3] = target: T1, NK1R F264Y M291F; test: IP3 accumulation assay (Gq); conditions: COS-7, COS7 cells, [3H]inositol, 10 mM LiCl, 150 min 37 °C, mean ± SEM of three independent experiments
Procedure: (§2) COS7 cells were tested monthly for mycoplasma and kept negative. COS7 cells were plated in either clear, white, or white with clear bottom 96-well plates that were coated with poly-D-lysine (Sigma-Aldrich) 30 min prior to cell seeding (20,000 cells/well). The following day plates were transiently transfected using calcium precipitation with 200 ng/well DNA in a culture medium with the addition of 100μM (final concentration) chloroquine. Transfection was stopped 5 h later with the addition of a fresh maintenance medium. Fig. […] COS7 cells seeded in clear 96-well plates were incubated with 0.5 μCi/ml myo [3H]inositol (Perkin Elmer) in 100 μl growth medium overnight following the transfection. The subsequent day cells were washed twice with 200 μl/well HBSS (GIBCO, Life Technologies) and preincubated for 5 min at 37 °C with 100 μl/well HBSS buffer supplemented with 10 mM LiCl. Ligand addition was followed by 150 min incubation at 37 °C. To stop ligand incubation, cells were lysed with 40 μl 10 mM formic acid followed by 30 min incubation on ice. Thirty five microliters of the lysate was transferred to white 96-well plates together with 60 μl of 1:8 diluted YSi SPA scintillation beads (Perkin Elmer). Plates were sealed and vigorously shaken for 15 min, followed by 5 min centrifugation at 1500 rpm. Measurements (scintillation) were recorded on a Microbeta (PerkinElmer) after a 4 h delay and determinations were made in duplicates. All dose-response curves have been calculated using Prism 10 software (GraphPad Software, www.graphpad.com) nonlinear regression with four parameters. All data are shown as mean ± SEM unless stated otherwise and consist of two technical replicates from three biological replicates.

[4] = target: T2, NK1R M291F; test: IP3 accumulation assay (Gq); conditions: COS-7, COS7 cells, [3H]inositol, 10 mM LiCl, 150 min 37 °C, mean ± SEM of three independent experiments
Procedure: as §2

[5] = target: T3, NK1R F264Y (Homo sapiens, UniProt P25103, F264Y); test: IP3 accumulation assay (Gq); conditions: COS-7, COS7 cells, [3H]inositol, 10 mM LiCl, 150 min 37 °C, mean ± SEM of three independent experiments
T3 construct: host or cells: COS7
T3 sequence (P25103 whole entry F264Y): as the sequence (P25103 whole entry F264Y/M291F) above, with F291M counted along it
Procedure: as §2

Emax [1]: 125%
Emax [2]: 99.9%
Emax [3]: 102 ± 11%
Emax [4]: 102 ± 12.7%
Emax [5]: 105 ± 6.3%
SMILES: CSCC[C@H](NC(=O)[C@H](CC(C)C)NC(=O)CNC(=O)[C@@H](NC(=O)[C@H](Cc1ccccc1)NC(=O)[C@H](CO)NC(=O)[C@H](CC(=O)O)NC(=O)[C@@H](NC(=O)[C@H](CCCCN)NC(=O)[C@@H](N)Cc1c[nH]cn1)[C@@H](C)O)C(C)C)C(N)=O [NKA, neurokinin A]
